Patent US12673956B2, “Oxadiazolyl dihydropyrano[2,3-b]pyridine inhibitors of HIPK2 for treating kidney fibrosis” (ICAHN SCHOOL OF MEDICINE AT MOUNT SINAI, priority 2021, dated 2026)
pIC50: −log10 of the molar value. Like-named read-outs stand apart in the source and are kept apart here.

Legend:
Tg26 mice = experiment: Tg26 mice, model of HIV-associated nephropathy (chronic kidney disease); assay type: in vivo
Text: (§1) Activity of compounds of the invention was confirmed in vivo. Two chronic kidney disease models were employed: (1) Tg26 mice, a model of HIV-associated nephropathy, and (2) Col4a3-null mice, a model of Alport syndrome. Both CKD models are characterized by advanced glomerulosclerosis and tubulointerstitial fibrosis, leading to kidney failure and death approximately between 12 and 20 weeks of age.
Tg26 mice of FVB/N genetic background bearing a defective HIV-1 provirus lacking gag-pol have been described by Feng et al. [J Am Soc Nephrol 2009; 20: 2138-2146]. Six-week old heterozygous Tg26 mice are used. Wildtype littermates are used as controls. Mice in the treatment group receive test compound dissolved in 20% NMP, 60% PEG400, and 20% H2O by oral gavage at a dose of 30, 60, or 90 mg/kg body weight per day. Mice in the control group receive the same volume of vehicle. The mice are treated for a total of 4 weeks and sacrificed at age of 10 weeks. […] In another trial, 5- to 6-week old Tg26 mice were treated with Example 13 (90 mg/kg daily, PO) or vehicle for 4 weeks: 38% (8/21 mice) died of kidney failure in the control group within the experimental duration; 0% died in the HIPK2i-174 group (0/18 mice). […] [Because of significant inter-variability of baseline UACR in Tg26 mice at 5-6 weeks of age, the therapeutic effect is calculated based on fold change to baseline for each mouse.]

Col4a3-deficient mice = experiment: Col4a3-deficient mice, model of Alport syndrome (chronic kidney disease); assay type: in vivo; details: 60 mg/kg daily PO
Experimental: as §1
Three-week old Col4a3-deficient mice were treated with Example 13 (60 mg/kg daily, PO) or vehicle for 6 weeks. The median survival in vehicle group was 56 days, which was increased to 68 days in the treated group (21% increase).

[1] = test system: TGF/SMAD Signaling Pathway SBE Reporter—HEK293 Cell Line; experiment: Luciferase screen, TGF/SMAD SBE reporter HEK293 cells stimulated with TGFβ; assay type: cell-based; details: Homo sapiens; for pIC50: SBE reporter-HEK293 cells, TGFβ 10 ng/mL, 18 hours, read-out: Luciferase IC50; for IC50: HEK293, 18 h, read-out: Luciferase IC50 nM
Experimental: For the data in Table 1, the Bight-Glo™ Luciferase Assay System from Promega was used with TGF/SMAD Signaling Pathway SBE Reporter—HEK293 Cell Line from BPSbioscience. On day 1 SBE reporter-HEK293 cells were seeded at a density of 25,000 cells per well into a white clear-bottom 96-well microplate in 100 μl of growth medium without geneticin. The plate was incubated at 37° C. in a CO2 incubator for 24 hrs. The wells were renewed with 60 μL assay medium and treated with test compounds by adding 5 μL of compounds in medium. The concentration of test compound in medium is adjusted so that 5 μL will provide the desired molarity of the solution. For example, if the desired test concentration is 30 µM, then 5 μL of […] compound is added. After 4 hours, TGFβ was added to 10 ng/mL. The plate was incubated at 37° C. in a CO2 incubator overnight (18 hours). One hour prior to assay all medium was replaced. The luciferase assay was run using ONE-Step™ Luciferase Assay System by adding 100 al of ONE-Step™ Luciferase reagent per well, rocking at room temperature for ~15 to 30 minutes and measuring luminescence using a luminometer. The signals were normalized to percentage inhibition, with non-TGF treated cells as 100% inhibition, and the data were processed by Graphpad Prism.

[2] = another trial, 90 mg/kg daily PO, 4 weeks
[3] = first trial, four-week treatment, n=8
[4] = first trial, four-week treatment, vs. vehicle

**Q.** What does the source list for `CC1(C)Oc2ncc(-c3nc(-c4ccc(Cl)cc4)no3)cc2CC1O` (stereo in doubt) [Example 13, (S)-6-(3-(4-chlorophenyl)-1,2,4-oxadiazol-5-yl)-2,2-dimethyl-3,4-dihydro-2H-pyrano[2,3-b]pyridin-3-ol]?
**A.** reduction in kidney fibrosis (picrosirius red staining) in comparison to vehicle group (Tg26 mice; [2]): ~ 37%; reduction of urinary albumin-to-creatinine ratio from baseline values (Tg26 mice; [2]): ~ 57%; urinary albumin-to-creatinine ratio, fold change to baseline (Tg26 mice; another trial, 90 mg/kg daily PO, 4 weeks, n=17): 0.43±0.28; kidney fibrosis assessed by picrosirius red histological staining (Tg26 mice; another trial, 90 mg/kg daily PO, 4 weeks, n=18): 2.8±1.2%; died of kidney failure within the experimental duration (Tg26 mice; another trial, 5- to 6-week old Tg26 mice, 90 mg/kg daily PO, 4 weeks, 0/18 mice): 0%; Hazard ratio comparing vehicle vs. treatment (Tg26 mice; first trial, four-week treatment, Log-rank Mantel-Cox test): 7.2; average fold change in urinary albumin-to-creatinine ratio from week 0 to week 4 (Tg26 mice; [3]): 0.352; renal fibrosis, average % area (Tg26 mice; [3]): 2.540%; reduction in average fold change in urinary albumin-to-creatinine ratio (Tg26 mice; [4]): ~ 65%; reduction in renal fibrosis area (Tg26 mice; [4]): ~ 43%; survival (Tg26 mice; first trial, six-week old Tg26 mice, oral gavage 30, 60, or 90 mg/kg per day, four-week treatment, n=20): 100%; increase of median survival vs. vehicle group (Col4a3-deficient mice; 6 weeks): 21%; reduction in kidney fibrosis (picrosirius red staining) in comparison to vehicle group (Col4a3-deficient mice; 6 weeks): ~ 51%; kidney fibrosis assessed by picrosirius red histological staining (Col4a3-deficient mice; 6 weeks, n=9): 13.7±6.3%; reduction of urinary albumin-to-creatinine ratio vs. vehicle (Col4a3-deficient mice; after 6 weeks of treatment): ~ 45%; urinary albumin-to-creatinine ratio (Col4a3-deficient mice; after 6 weeks of treatment): 41.4 ± 14.2 mg/mg; median survival (Col4a3-deficient mice; three-week old mice, 6 weeks): 68 days; pIC50 [1]: 6.81

**Q.** `CC1(C)Oc2ncc(-c3nc(-c4ccc(F)cc4)no3)cc2C[C@@H]1O` [Example 20, (S)-6-(3-(4-fluorophenyl)-1,2,4-oxadiazol-5-yl)-2,2-dimethyl-3,4-dihydro-2H-pyrano[2,3-b]pyridin-3-ol] was tested. Which pIC50 [1] did it give?
**A.** Its pIC50 is 6.65.

**Q.** `CC1(C)Oc2ncc(-c3nc(-c4ncco4)no3)cc2C[C@H]1O` [Example 33, (3R)-2,2-dimethyl-6-(3-oxazol-2-yl-1,2,4-oxadiazol-5-yl)-3,4-dihydropyrano[2,3-b]pyridin-3-ol] was tested. Which IC50 [1] did it give?
**A.** Its IC50 is 76 nM.

**Q.** How did the pIC50 [1] turn out when `CC1(C)C[C@H](O)c2cc(-c3nc(-c4ccc(Br)cc4)no3)cnc2O1` (single isomer, unassigned) [Example 11] was run?
**A.** The pIC50 was 7.24.

**Q.** `CCn1ccc(-c2noc(-c3cnc4c(c3)C[C@@H](O)C(C)(C)O4)n2)n1` [Example 29, (R)-6-(3-(1-ethyl-1H-pyrazol-3-yl)-1,2,4-oxadiazol-5-yl)-2,2-dimethyl-3,4-dihydro-2H-pyrano[2,3-b]pyridin-3-ol] was tested. Which IC50 [1] did it give?
**A.** The IC50 was 56 nM.
